# Source: patent US9738634B2, “Heterocyclic amide compound and herbicide” (SYNGENTA PARTICIPATIONS AG, priority 2013, dated 2017)
# Legend:
# Assay type in all cases: in vivo
# Conditions in all cases: treatment dosage 320 g/ha
# [1] = tested on: wheat; test: Test Example 4: foliar treatment, effect on crop; e: wheat
# In short: (§1)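 Seeds are spot-sown into sterilized diluvial soil and covered with about 1.5 cm of soil. After 14 days' greenhouse growth at 25 to 30° C, plants are sprayed on stems and leaves with diluted emulsion at the stated g/ha rate, then scored at 3 weeks.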
# [2] = tested on: chickweed; test: Test Example 3: weedkilling efficacy through soil treatment; N: chickweed
# In short: (§2)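 Crop and weed responses were judged three weeks after a uniform surface spray of the water-diluted emulsion at the given g/ha rate. Seeds sat beneath about 1.5 cm of sterilized diluvial soil, and boxes stood in a greenhouse at 25 to 30° C.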
# [3] = tested on: transplanted rice; test: Test Example 1: preemergent weed treatment in the submerged state, effect on crop; a: transplanted rice
# In short: (§3)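 Pots of alluvial soil were flooded to a 4 cm depth. Mixed weed seeds were sown and 2.5 leaf-stage rice seedlings transplanted. On sowing day, water-diluted emulsion was applied to the water surface (dose in g/ha). After 3 weeks at 25–30 °C, effects were rated.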
# [4] = tested on: catchweed; test: Test Example 3: weedkilling efficacy through soil treatment; O: catchweed
# In short: as §2
# [5] = tested on: common wind-grass; test: Test Example 4: weedkilling efficacy by foliar treatment; J: common wind-grass
# In short: as §1
# [6] = tested on: beet; test: Test Example 4: foliar treatment, effect on crop; f: beet
# In short: as §1
# [7] = tested on: directly sown rice; test: Test Example 4: foliar treatment, effect on crop; b: directly sown rice
# In short: as §1
# [8] = tested on: wild oat; test: Test Example 3: weedkilling efficacy through soil treatment; G: wild oat
# In short: as §2
# [9] = tested on: directly sown rice; test: Test Example 3: soil treatment, effect on crop; b: directly sown rice
# In short: as §2
# [10] = tested on: oval-leafed pondweed; test: Test Example 2: weedkilling efficacy, growth period weed treatment in the submerged state; C: oval-leafed pondweed
# In short: (§4)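 Weeds treated at the 1-2 leaf stage by application of diluted emulsion onto floodwater (4 cm depth, alluvial soil) at specified g/ha. Grown in greenhouse at 25 to 30° C; herbicidal effect rated three weeks after treatment.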
# [11] = tested on: soybean; test: Test Example 3: soil treatment, effect on crop; d: soybean
# In short: as §2
# [12] = tested on: beet; test: Test Example 3: soil treatment, effect on crop; f: beet
# In short: as §2
# [13] = tested on: crabgrass; test: Test Example 4: weedkilling efficacy by foliar treatment; D: crabgrass
# In short: as §1
# [14] = tested on: green foxtail; test: Test Example 4: weedkilling efficacy by foliar treatment; E: green foxtail
# In short: as §1
# [15] = tested on: wild oat; test: Test Example 4: weedkilling efficacy by foliar treatment; G: wild oat
# In short: as §1
# [16] = tested on: rapeseed; test: Test Example 3: soil treatment, effect on crop; g: rapeseed
# In short: as §2
# [17] = tested on: Indian mallow; test: Test Example 3: weedkilling efficacy through soil treatment; K: Indian mallow
# In short: as §2
# [18] = tested on: barnyard grass; test: Test Example 3: weedkilling efficacy through soil treatment; F: barnyard grass
# In short: as §2
# [19] = tested on: soybean; test: Test Example 4: foliar treatment, effect on crop; d: soybean
# In short: as §1
# [20] = tested on: rapeseed; test: Test Example 4: foliar treatment, effect on crop; g: rapeseed
# In short: as §1
# [21] = tested on: chickweed; test: Test Example 4: weedkilling efficacy by foliar treatment; N: chickweed
# In short: as §1
# [22] = tested on: bulrush; test: Test Example 1: weedkilling efficacy, preemergent weed treatment in the submerged state; B: bulrush
# In short: as §3
# [23] = tested on: Italian ryegrass; test: Test Example 4: weedkilling efficacy by foliar treatment; I: Italian ryegrass
# In short: as §1
# [24] = tested on: oval-leafed pondweed; test: Test Example 1: weedkilling efficacy, preemergent weed treatment in the submerged state; C: oval-leafed pondweed
# In short: as §3
# [25] = tested on: bulrush; test: Test Example 2: weedkilling efficacy, growth period weed treatment in the submerged state; B: bulrush
# In short: as §4
# [26] = tested on: crabgrass; test: Test Example 3: weedkilling efficacy through soil treatment; D: crabgrass
# In short: as §2
# [27] = tested on: fig-leafed goosefoot; test: Test Example 4: weedkilling efficacy by foliar treatment; M: fig-leafed goosefoot
# In short: as §1
# [28] = tested on: common wind-grass; test: Test Example 3: weedkilling efficacy through soil treatment; J: common wind-grass
# In short: as §2
# [29] = tested on: redroot pigweed; test: Test Example 3: weedkilling efficacy through soil treatment; L: redroot pigweed
# In short: as §2
# [30] = tested on: catchweed; test: Test Example 4: weedkilling efficacy by foliar treatment; O: catchweed
# In short: as §1
# [31] = tested on: fig-leafed goosefoot; test: Test Example 3: weedkilling efficacy through soil treatment; M: fig-leafed goosefoot
# In short: as §2
# [32] = tested on: Indian mallow; test: Test Example 4: weedkilling efficacy by foliar treatment; K: Indian mallow
# In short: as §1
# [33] = tested on: barnyard grass; test: Test Example 4: weedkilling efficacy by foliar treatment; F: barnyard grass
# In short: as §1
# [34] = tested on: black-grass; test: Test Example 4: weedkilling efficacy by foliar treatment; H: black-grass
# In short: as §1
# [35] = tested on: black-grass; test: Test Example 3: weedkilling efficacy through soil treatment; H: black-grass
# In short: as §2
# [36] = tested on: wheat; test: Test Example 3: soil treatment, effect on crop; e: wheat
# In short: as §2
# [37] = tested on: barnyard grass; test: Test Example 2: weedkilling efficacy, growth period weed treatment in the submerged state; A: barnyard grass
# In short: as §4
# [38] = tested on: Italian ryegrass; test: Test Example 3: weedkilling efficacy through soil treatment; I: Italian ryegrass
# In short: as §2
# [39] = tested on: redroot pigweed; test: Test Example 4: weedkilling efficacy by foliar treatment; L: redroot pigweed
# In short: as §1
# [40] = tested on: birds-eye speedwell; test: Test Example 4: weedkilling efficacy by foliar treatment; p: birds-eye speedwell
# In short: as §1
# [41] = tested on: corn; test: Test Example 4: foliar treatment, effect on crop; c: corn
# In short: as §1
# [42] = tested on: barnyard grass; test: Test Example 1: weedkilling efficacy, preemergent weed treatment in the submerged state; A: barnyard grass
# In short: as §3
# [43] = tested on: green foxtail; test: Test Example 3: weedkilling efficacy through soil treatment; E: green foxtail
# In short: as §2
# [44] = tested on: birds-eye speedwell; test: Test Example 3: weedkilling efficacy through soil treatment; p: birds-eye speedwell
# In short: as §2
# [45] = tested on: corn; test: Test Example 3: soil treatment, effect on crop; c: corn
# In short: as §2
structure (smiles),measurement,setting,value
CC1=C(c2ccccc2)C(=O)N(C(C)(C)C(=O)Nc2cc(C(F)F)cc(Cl)n2)CO1 [B-2-44],e (wheat) effect on crop grade,[1],"4 (weed kill ratio 70% or more, less than 90%)"
same,N (chickweed) weedkilling efficacy grade,[2],"3 (weed kill ratio 40% or more, less than 70%)"
same,a (transplanted rice) effect on crop grade,[3],"5 (weed kill ratio 90% or more, (practically complete withering))"
same,O (catchweed) weedkilling efficacy grade,[4],0 (weed kill ratio 5% or less (practically no effect))
same,J (common wind-grass) weedkilling efficacy grade,[5],"5 (weed kill ratio 90% or more, (practically complete withering))"
same,f (beet) effect on crop grade,[6],"3 (weed kill ratio 40% or more, less than 70%)"
same,b (directly sown rice) effect on crop grade,[7],"3 (weed kill ratio 40% or more, less than 70%)"
same,G (wild oat) weedkilling efficacy grade,[8],"2 (weed kill ratio 20% or more, less than 40%)"
same,b (directly sown rice) effect on crop grade,[9],"3 (weed kill ratio 40% or more, less than 70%)"
same,C (oval-leafed pondweed) weedkilling efficacy grade,[10],"5 (weed kill ratio 90% or more, (practically complete withering))"
same,d (soybean) effect on crop grade,[11],0 (weed kill ratio 5% or less (practically no effect))
same,f (beet) effect on crop grade,[12],"3 (weed kill ratio 40% or more, less than 70%)"
same,D (crabgrass) weedkilling efficacy grade,[13],"4 (weed kill ratio 70% or more, less than 90%)"
same,E (green foxtail) weedkilling efficacy grade,[14],"5 (weed kill ratio 90% or more, (practically complete withering))"
same,G (wild oat) weedkilling efficacy grade,[15],"3 (weed kill ratio 40% or more, less than 70%)"
same,g (rapeseed) effect on crop grade,[16],"4 (weed kill ratio 70% or more, less than 90%)"
same,K (Indian mallow) weedkilling efficacy grade,[17],0 (weed kill ratio 5% or less (practically no effect))
same,F (barnyard grass) weedkilling efficacy grade,[18],"5 (weed kill ratio 90% or more, (practically complete withering))"
same,d (soybean) effect on crop grade,[19],"4 (weed kill ratio 70% or more, less than 90%)"
same,g (rapeseed) effect on crop grade,[20],"5 (weed kill ratio 90% or more, (practically complete withering))"
same,N (chickweed) weedkilling efficacy grade,[21],"4 (weed kill ratio 70% or more, less than 90%)"
same,B (bulrush) weedkilling efficacy grade,[22],"5 (weed kill ratio 90% or more, (practically complete withering))"
same,I (Italian ryegrass) weedkilling efficacy grade,[23],"5 (weed kill ratio 90% or more, (practically complete withering))"
same,C (oval-leafed pondweed) weedkilling efficacy grade,[24],"5 (weed kill ratio 90% or more, (practically complete withering))"
same,B (bulrush) weedkilling efficacy grade,[25],"5 (weed kill ratio 90% or more, (practically complete withering))"
same,D (crabgrass) weedkilling efficacy grade,[26],"5 (weed kill ratio 90% or more, (practically complete withering))"
same,M (fig-leafed goosefoot) weedkilling efficacy grade,[27],"3 (weed kill ratio 40% or more, less than 70%)"
same,J (common wind-grass) weedkilling efficacy grade,[28],"5 (weed kill ratio 90% or more, (practically complete withering))"
same,L (redroot pigweed) weedkilling efficacy grade,[29],0 (weed kill ratio 5% or less (practically no effect))
same,O (catchweed) weedkilling efficacy grade,[30],"5 (weed kill ratio 90% or more, (practically complete withering))"
same,M (fig-leafed goosefoot) weedkilling efficacy grade,[31],"3 (weed kill ratio 40% or more, less than 70%)"
same,K (Indian mallow) weedkilling efficacy grade,[32],"4 (weed kill ratio 70% or more, less than 90%)"
same,F (barnyard grass) weedkilling efficacy grade,[33],"4 (weed kill ratio 70% or more, less than 90%)"
same,H (black-grass) weedkilling efficacy grade,[34],"5 (weed kill ratio 90% or more, (practically complete withering))"
same,H (black-grass) weedkilling efficacy grade,[35],"5 (weed kill ratio 90% or more, (practically complete withering))"
same,e (wheat) effect on crop grade,[36],"1 (weed kill ratio 5% or more, less than 20%)"
same,A (barnyard grass) weedkilling efficacy grade,[37],"5 (weed kill ratio 90% or more, (practically complete withering))"
same,I (Italian ryegrass) weedkilling efficacy grade,[38],"5 (weed kill ratio 90% or more, (practically complete withering))"
same,L (redroot pigweed) weedkilling efficacy grade,[39],"3 (weed kill ratio 40% or more, less than 70%)"
same,P (birds-eye speedwell) weedkilling efficacy grade,[40],"5 (weed kill ratio 90% or more, (practically complete withering))"
same,c (corn) effect on crop grade,[41],"1 (weed kill ratio 5% or more, less than 20%)"
same,A (barnyard grass) weedkilling efficacy grade,[42],"5 (weed kill ratio 90% or more, (practically complete withering))"
same,E (green foxtail) weedkilling efficacy grade,[43],"5 (weed kill ratio 90% or more, (practically complete withering))"
same,P (birds-eye speedwell) weedkilling efficacy grade,[44],"4 (weed kill ratio 70% or more, less than 90%)"
same,c (corn) effect on crop grade,[45],0 (weed kill ratio 5% or less (practically no effect))
